From the kinase profiling compilation of Christmann-Franck et al. (2016)

Experiments:
Experiment in all cases: KINOMEscan competition binding
Conditions in all cases: compound 10.0 µM
CAMKK2 (human) = CAMKK2 (human) (UniProt Q96RR4)
MKNK2 (human) = MKNK2 (human) (UniProt Q9HBH9)
SRPK2 (human) = SRPK2 (human) (UniProt P78362)
[1] = biological target: JAK3 JH1 catalytic (human) (UniProt P52333)
NEK2 (human) = NEK2 (human) (UniProt P51955)
MINK1 (human) = MINK1 (human) (UniProt Q8N4C8)
MAPK8 (human) = MAPK8 (human) (UniProt P45983)
CLK1 (human) = CLK1 (human) (UniProt P49759)
MAP2K4 (human) = MAP2K4 (human) (UniProt P45985)
CSNK2A2 (human) = CSNK2A2 (human) (UniProt P19784)
PIM1 (human) = PIM1 (human) (UniProt P11309)
[2] = tested on: KIT (human), P10721 [V559D/T670I]
MAP3K5 (human) = MAP3K5 (human) (UniProt Q99683)
MAP3K5 (human), sequence (Q99683 whole entry, looked up): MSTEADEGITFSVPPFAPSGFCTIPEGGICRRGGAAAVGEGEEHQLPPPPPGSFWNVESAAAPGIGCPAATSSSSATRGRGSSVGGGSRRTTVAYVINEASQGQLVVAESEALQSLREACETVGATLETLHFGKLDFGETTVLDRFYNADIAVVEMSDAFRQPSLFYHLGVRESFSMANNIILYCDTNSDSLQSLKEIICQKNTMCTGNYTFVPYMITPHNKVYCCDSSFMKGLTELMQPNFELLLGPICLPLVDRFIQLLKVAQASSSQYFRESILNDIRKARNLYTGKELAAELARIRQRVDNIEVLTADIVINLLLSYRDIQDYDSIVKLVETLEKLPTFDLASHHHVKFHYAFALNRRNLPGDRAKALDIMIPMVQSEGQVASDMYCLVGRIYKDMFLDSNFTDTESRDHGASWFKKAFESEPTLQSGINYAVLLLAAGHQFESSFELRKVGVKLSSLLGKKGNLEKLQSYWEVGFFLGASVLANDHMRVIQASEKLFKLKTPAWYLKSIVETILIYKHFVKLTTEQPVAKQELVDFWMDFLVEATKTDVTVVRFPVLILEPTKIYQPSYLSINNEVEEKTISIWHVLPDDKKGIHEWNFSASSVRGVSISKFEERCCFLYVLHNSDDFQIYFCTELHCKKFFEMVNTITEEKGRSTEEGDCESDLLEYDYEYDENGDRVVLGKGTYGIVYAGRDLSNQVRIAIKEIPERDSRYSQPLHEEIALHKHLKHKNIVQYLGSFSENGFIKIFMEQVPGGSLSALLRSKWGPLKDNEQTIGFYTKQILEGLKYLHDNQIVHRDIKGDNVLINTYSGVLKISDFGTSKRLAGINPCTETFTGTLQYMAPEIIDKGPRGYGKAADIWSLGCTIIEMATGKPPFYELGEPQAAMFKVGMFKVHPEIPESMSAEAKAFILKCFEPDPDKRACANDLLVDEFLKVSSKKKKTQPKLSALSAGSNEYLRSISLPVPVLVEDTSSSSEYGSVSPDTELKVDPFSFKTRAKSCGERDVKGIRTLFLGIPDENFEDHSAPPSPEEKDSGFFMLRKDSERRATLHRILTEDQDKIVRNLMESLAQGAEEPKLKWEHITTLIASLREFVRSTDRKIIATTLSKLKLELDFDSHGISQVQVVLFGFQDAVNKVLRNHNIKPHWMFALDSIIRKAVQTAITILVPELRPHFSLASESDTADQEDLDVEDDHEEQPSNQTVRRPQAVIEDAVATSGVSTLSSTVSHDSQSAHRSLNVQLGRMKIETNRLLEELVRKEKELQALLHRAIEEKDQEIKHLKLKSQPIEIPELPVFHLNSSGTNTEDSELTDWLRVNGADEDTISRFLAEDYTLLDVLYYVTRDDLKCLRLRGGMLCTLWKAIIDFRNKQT

TGFBR2 (human) = TGFBR2 (human) (UniProt P37173)
RPS6KA2 KD2 (human) = RPS6KA2 KD2 (human) (UniProt Q15349)
MKNK1 (human) = MKNK1 (human) (UniProt Q9BUB5)
DAPK1 (human) = DAPK1 (human) (UniProt P53355)
SRPK3 (human) = SRPK3 (human) (UniProt Q9UPE1)
PIP5K1A (human) = PIP5K1A (human) (UniProt Q99755)
RPS6KA5 KD2 (human) = RPS6KA5 KD2 (human) (UniProt O75582)
DAPK3 (human) = DAPK3 (human) (UniProt O43293)
DAPK3 (human), sequence (O43293 whole entry, looked up): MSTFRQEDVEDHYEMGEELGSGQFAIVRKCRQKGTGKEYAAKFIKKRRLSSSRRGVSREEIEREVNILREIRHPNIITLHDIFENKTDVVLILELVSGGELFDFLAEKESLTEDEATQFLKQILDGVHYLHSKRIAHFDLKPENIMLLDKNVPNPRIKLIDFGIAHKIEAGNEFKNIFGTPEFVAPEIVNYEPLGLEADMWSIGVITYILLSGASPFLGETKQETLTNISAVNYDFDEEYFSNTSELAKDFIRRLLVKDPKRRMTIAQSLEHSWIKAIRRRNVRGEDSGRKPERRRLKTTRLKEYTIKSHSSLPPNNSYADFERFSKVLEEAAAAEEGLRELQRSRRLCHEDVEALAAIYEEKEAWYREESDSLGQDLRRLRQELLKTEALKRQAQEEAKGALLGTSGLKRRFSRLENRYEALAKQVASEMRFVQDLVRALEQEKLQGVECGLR

PIP4K2B (human) = PIP4K2B (human) (UniProt P78356)
TNIK (human) = TNIK (human) (UniProt Q9UKE5)
BMPR1B (human) = BMPR1B (human) (UniProt O00238)
STK33 (human) = STK33 (human) (UniProt Q9BYT3)
ACVR1 (human) = ACVR1 (human) (UniProt Q04771)
ACVR1 (human), sequence (Q04771 whole entry, looked up): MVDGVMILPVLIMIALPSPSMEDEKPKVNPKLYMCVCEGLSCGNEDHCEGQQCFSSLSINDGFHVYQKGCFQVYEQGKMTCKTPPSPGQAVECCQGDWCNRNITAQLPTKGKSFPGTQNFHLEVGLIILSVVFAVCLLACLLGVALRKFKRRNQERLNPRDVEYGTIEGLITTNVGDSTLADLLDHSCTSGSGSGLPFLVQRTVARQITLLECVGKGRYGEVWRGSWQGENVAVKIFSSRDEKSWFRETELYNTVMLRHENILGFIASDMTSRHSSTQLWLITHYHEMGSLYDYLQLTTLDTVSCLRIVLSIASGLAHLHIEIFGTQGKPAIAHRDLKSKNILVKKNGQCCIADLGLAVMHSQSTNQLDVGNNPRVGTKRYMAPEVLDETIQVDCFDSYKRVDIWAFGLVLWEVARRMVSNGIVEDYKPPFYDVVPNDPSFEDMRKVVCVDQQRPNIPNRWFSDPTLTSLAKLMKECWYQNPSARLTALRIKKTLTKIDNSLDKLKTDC

HIPK1 (human) = HIPK1 (human) (UniProt Q86Z02)
HIPK1 (human), sequence (Q86Z02 whole entry, looked up): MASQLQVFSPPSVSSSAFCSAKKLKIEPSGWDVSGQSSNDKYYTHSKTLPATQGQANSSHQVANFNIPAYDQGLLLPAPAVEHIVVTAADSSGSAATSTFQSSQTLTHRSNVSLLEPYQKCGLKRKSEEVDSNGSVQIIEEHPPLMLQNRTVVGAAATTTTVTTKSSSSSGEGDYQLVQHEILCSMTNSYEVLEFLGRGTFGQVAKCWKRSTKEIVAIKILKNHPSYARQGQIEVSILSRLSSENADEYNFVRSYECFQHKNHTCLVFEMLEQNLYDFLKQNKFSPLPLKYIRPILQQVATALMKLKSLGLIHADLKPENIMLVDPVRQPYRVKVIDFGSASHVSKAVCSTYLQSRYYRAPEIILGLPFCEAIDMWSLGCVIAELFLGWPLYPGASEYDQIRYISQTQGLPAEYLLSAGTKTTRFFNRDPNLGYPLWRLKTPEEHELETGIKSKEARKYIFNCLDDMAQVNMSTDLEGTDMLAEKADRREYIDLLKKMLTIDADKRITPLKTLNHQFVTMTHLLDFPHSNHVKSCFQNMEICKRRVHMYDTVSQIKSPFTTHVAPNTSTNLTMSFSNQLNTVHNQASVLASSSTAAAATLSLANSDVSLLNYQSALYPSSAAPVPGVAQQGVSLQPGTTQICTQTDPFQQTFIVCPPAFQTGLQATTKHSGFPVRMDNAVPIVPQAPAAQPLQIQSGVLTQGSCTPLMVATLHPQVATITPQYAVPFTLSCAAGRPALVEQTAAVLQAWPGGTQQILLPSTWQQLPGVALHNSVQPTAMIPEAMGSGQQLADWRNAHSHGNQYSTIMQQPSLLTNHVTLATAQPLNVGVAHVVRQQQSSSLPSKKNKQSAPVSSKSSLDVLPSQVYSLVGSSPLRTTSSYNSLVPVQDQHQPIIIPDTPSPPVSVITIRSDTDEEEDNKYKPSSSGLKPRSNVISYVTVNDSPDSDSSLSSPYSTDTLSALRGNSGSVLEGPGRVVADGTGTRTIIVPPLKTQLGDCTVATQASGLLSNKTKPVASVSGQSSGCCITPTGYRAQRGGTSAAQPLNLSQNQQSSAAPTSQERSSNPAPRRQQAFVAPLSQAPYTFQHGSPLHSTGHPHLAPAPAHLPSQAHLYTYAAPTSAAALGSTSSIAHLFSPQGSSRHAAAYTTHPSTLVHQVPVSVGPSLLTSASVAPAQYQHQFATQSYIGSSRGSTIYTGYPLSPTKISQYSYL

ACVR2A (human) = ACVR2A (human) (UniProt P27037)
[3] = tested on: KIT (human), P10721 [V559D]
PIK3CG (human) = PIK3CG (human) (UniProt P48736)
PLK4 (human) = PLK4 (human) (UniProt O00444)
CSNK1D (human) = CSNK1D (human) (UniProt P48730)
GAK (human) = GAK (human) (UniProt O14976)
[4] = tested on: FLT3 (human), P36888 [K663Q]
RPS6KA1 KD2 (human) = RPS6KA1 KD2 (human) (UniProt Q15418)
[5] = tested on: EIF2AK4 KD2 (human), Q9P2K8 [S808G]
[6] = tested on: KIT (human), P10721 [V559D/V654A]
MAP4K4 (human) = MAP4K4 (human) (UniProt O95819)
TAOK3 (human) = TAOK3 (human) (UniProt Q9H2K8)
CSNK1E (human) = CSNK1E (human) (UniProt P49674)
PRKD1 (human) = PRKD1 (human) (UniProt Q15139)
RPS6KA4 KD2 (human) = RPS6KA4 KD2 (human) (UniProt O75676)

MINK1 (human), sequence (Q8N4C8 whole entry, looked up): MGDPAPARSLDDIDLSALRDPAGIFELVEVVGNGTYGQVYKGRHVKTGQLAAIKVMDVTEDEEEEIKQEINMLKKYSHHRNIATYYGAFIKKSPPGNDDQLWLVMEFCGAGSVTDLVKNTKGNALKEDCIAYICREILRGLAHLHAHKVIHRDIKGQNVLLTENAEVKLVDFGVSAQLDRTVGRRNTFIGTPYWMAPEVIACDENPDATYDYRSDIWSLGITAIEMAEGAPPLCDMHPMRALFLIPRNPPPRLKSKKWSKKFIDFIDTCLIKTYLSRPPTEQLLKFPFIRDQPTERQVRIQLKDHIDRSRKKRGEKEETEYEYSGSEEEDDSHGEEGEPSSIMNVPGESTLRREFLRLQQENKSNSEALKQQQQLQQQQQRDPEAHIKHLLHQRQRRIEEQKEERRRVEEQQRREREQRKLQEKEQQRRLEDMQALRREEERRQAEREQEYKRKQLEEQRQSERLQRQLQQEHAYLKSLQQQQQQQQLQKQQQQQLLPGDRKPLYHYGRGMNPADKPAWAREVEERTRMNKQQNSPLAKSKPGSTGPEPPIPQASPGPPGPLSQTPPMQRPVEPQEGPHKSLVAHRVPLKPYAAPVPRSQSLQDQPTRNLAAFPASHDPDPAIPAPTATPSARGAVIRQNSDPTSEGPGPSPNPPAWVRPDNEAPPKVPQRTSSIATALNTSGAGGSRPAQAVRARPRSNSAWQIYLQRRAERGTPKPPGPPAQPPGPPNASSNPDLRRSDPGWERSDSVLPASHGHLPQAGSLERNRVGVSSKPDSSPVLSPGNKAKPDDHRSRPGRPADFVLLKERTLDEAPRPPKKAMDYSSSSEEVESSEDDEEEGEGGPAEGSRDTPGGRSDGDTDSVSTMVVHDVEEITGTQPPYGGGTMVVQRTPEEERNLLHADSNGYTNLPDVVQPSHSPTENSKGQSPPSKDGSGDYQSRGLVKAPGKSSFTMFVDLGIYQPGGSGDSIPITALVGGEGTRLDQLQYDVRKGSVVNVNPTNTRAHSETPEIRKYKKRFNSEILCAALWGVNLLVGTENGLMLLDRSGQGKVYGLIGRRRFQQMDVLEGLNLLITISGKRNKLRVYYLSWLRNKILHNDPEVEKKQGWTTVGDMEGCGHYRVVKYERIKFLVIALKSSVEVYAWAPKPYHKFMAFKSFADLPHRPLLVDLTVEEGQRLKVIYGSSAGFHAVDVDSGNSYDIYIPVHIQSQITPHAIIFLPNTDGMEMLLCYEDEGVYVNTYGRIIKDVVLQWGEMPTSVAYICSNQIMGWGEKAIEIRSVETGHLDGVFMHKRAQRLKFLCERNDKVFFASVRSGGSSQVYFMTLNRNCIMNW

`CN1CCN(c2ccc(C(=O)Nc3ncc4c(n3)N(C)c3ccccc3C(=O)N4C)cc2)CC1` showed a kinase still bound, per cent of control (CAMKK2 (human)) of 97%, a kinase still bound, per cent of control (MKNK2 (human)) of 66% and a kinase still bound, per cent of control (SRPK2 (human)) of 100%. It also gave a kinase still bound, per cent of control [1] of 100%, a kinase still bound, per cent of control (NEK2 (human)) of 100% and a kinase still bound, per cent of control (MINK1 (human)) of 100%. The kinase still bound, per cent of control (MAPK8 (human)) was 100%, the kinase still bound, per cent of control (CLK1 (human)) was 100% and the kinase still bound, per cent of control (MAP2K4 (human)) was 86%. For the same molecule, the kinase still bound, per cent of control (CSNK2A2 (human)) was 78%, the kinase still bound, per cent of control (PIM1 (human)) was 100% and the kinase still bound, per cent of control [2] was 75%. The kinase still bound, per cent of control (MAP3K5 (human)) was 94%, the kinase still bound, per cent of control (TGFBR2 (human)) was 100% and the kinase still bound, per cent of control (RPS6KA2 KD2 (human)) was 64%. The kinase still bound, per cent of control (MKNK1 (human)) was 100%, the kinase still bound, per cent of control (DAPK1 (human)) was 84% and the kinase still bound, per cent of control (SRPK3 (human)) was 100%. It also gave a kinase still bound, per cent of control (PIP5K1A (human)) of 99%, a kinase still bound, per cent of control (RPS6KA5 KD2 (human)) of 100% and a kinase still bound, per cent of control (DAPK3 (human)) of 100%. It also gave a kinase still bound, per cent of control (PIP4K2B (human)) of 100%, a kinase still bound, per cent of control (TNIK (human)) of 100% and a kinase still bound, per cent of control (BMPR1B (human)) of 100%. It also gave a kinase still bound, per cent of control (STK33 (human)) of 100%, a kinase still bound, per cent of control (ACVR1 (human)) of 91% and a kinase still bound, per cent of control (HIPK1 (human)) of 100%. For the same molecule, the kinase still bound, per cent of control (ACVR2A (human)) was 100%, the kinase still bound, per cent of control [3] was 89% and the kinase still bound, per cent of control (PIK3CG (human)) was 70%. For the same molecule, the kinase still bound, per cent of control (PLK4 (human)) was 84%, the kinase still bound, per cent of control (CSNK1D (human)) was 85% and the kinase still bound, per cent of control (GAK (human)) was 100%. For the same molecule, the kinase still bound, per cent of control [4] was 100%, the kinase still bound, per cent of control (RPS6KA1 KD2 (human)) was 94% and the kinase still bound, per cent of control [5] was 100%. The kinase still bound, per cent of control [6] was 100%, the kinase still bound, per cent of control (MAP4K4 (human)) was 100% and the kinase still bound, per cent of control (TAOK3 (human)) was 92%. The kinase still bound, per cent of control (CSNK1E (human)) was 89%, the kinase still bound, per cent of control (PRKD1 (human)) was 100% and the kinase still bound, per cent of control (RPS6KA4 KD2 (human)) was 98%.

For `CS(=O)(=O)Nc1ccc(-c2cc(/C=C3\SC(=N)NC3=O)c[nH]c2=O)cc1`, the kinase still bound, per cent of control (CAMKK2 (human)) was 31%, the kinase still bound, per cent of control (SRPK2 (human)) was 2.3% and the kinase still bound, per cent of control [1] was 29%. It also gave a kinase still bound, per cent of control (NEK2 (human)) of 19%, a kinase still bound, per cent of control (MINK1 (human)) of 15% and a kinase still bound, per cent of control (CLK1 (human)) of 1.6%. The kinase still bound, per cent of control (CSNK2A2 (human)) was 3.4%, the kinase still bound, per cent of control (PIM1 (human)) was 9.5% and the kinase still bound, per cent of control [2] was 32%. It also gave a kinase still bound, per cent of control (MAP3K5 (human)) of 4.6%, a kinase still bound, per cent of control (TGFBR2 (human)) of 0.85% and a kinase still bound, per cent of control (DAPK1 (human)) of 6.4%. It also gave a kinase still bound, per cent of control (SRPK3 (human)) of 14%, a kinase still bound, per cent of control (RPS6KA5 KD2 (human)) of 0.15% and a kinase still bound, per cent of control (DAPK3 (human)) of 4.4%. The kinase still bound, per cent of control (PIP4K2B (human)) was 13%, the kinase still bound, per cent of control (BMPR1B (human)) was 4.1% and the kinase still bound, per cent of control (ACVR1 (human)) was 27%. For the same molecule, the kinase still bound, per cent of control (HIPK1 (human)) was 0.5%, the kinase still bound, per cent of control (ACVR2A (human)) was 6.6% and the kinase still bound, per cent of control [3] was 12%. For the same molecule, the kinase still bound, per cent of control (PLK4 (human)) was 24%, the kinase still bound, per cent of control [4] was 13% and the kinase still bound, per cent of control [5] was 25%. For the same molecule, the kinase still bound, per cent of control (MAP4K4 (human)) was 25%, the kinase still bound, per cent of control (PRKD1 (human)) was 15% and the kinase still bound, per cent of control (RPS6KA4 KD2 (human)) was 0.35%.
